Measurements as given in patent publication EP4198025A1, “BENZIMIDAZOLE DERIVATIVES FOR THE TREATMENT AND PROPHYLAXIS OF INFECTIOUS DISEASES” (Eberhard Karls Universität Tübingen Medizinische Fakultät, priority 2021, dated 2023).
Where two headings read alike, the source gives them in different places.

Legend:
[1] = target: T1, SurA (Escherichia coli, UniProt P0ABZ6); assay type: binding, E. coli; parameters: key: An increase of the inflection points in the nanoDSF experiments is indicated by (+); a decrease by (-); no changes with (none); ambiguity with a question mark (?); conditions: 100 µM compound, 2 µM SurA, 40 mM HEPES pH 7.4
Procedure: Nano Differential Scanning Fluorimetry (nanoDSF) measurements of the QHL (qualified hit list) compounds provided by the ELF were performed on a Tycho system (NanoTemper).

[2] = system: HepG2 cells; assay: Cytotoxicity assay, LDH release; assay type: cell-based; conditions: 500 µM compound
Procedure: Cell cytotoxicity was evaluated monitoring the LDH release from HepG2 cells using the CytoTox 96® Non-Radio Cytotoxicity Assay (Promega) according to the manufacturer's instructions. […] After incubation, 25 µl were transferred into a fresh 96-well flat clear bottom plate and mixed with 25 µl CytoTox 96® Reagent. LDH release reactions were incubated 30 min at RT in the dark and 25 µl Stop Solution were added. LDH release was measured at 490 nm in a multiplate reader.

[3] = Solubility estimate based on turbidity (OD600nm); assay type: physicochemical
Description: The activity in the primary assay is distinguished into influence on SurA (SurA inhibition = +; no SurA inhibiton = 0) or interference with Luciferase per se (no influence on Luc activity = 0; enhances Luc activity = +; reduces Luc activity = -).

[4] = target: T1, SurA; assay: biochemical; assay type: biochemical, E. coli
Description: The biological function of SurA is to bind and to keep outer membrane proteins that have reached the periplasm in an unfolded but folding-competent state. The inventors' assay is based on this interaction and uses firefly Luciferase (fLuc) as a non-native substrate. […] The loss of tertiary structure of fLuc leads to the exposure of binding sites for SurA. It is known that SurA binds selectively to a special group of substrates. These substrates have in common the specific patterns of hydrophobic amino acids that are highly enriched in the beta strands of integral outer membrane proteins. These motifs are present in OMPs of all Gram-negative bacteria and in fLuc as well. Upon mild heat treatment of fLuc and its subsequent partial unfolding, fLuc is accepted as a substrate by SurA. Of note, these intermediates served as reporter substrates to determine the activity of a cytoplasmic folding chaperone. […] This interaction remains stable upon temperature reduction. Next, the temperature of the assay is reduced to room temperature and luciferase activity is subsequently measured by addition of Luciferin and ATP. In conditions without SurA, fLuc will refold into its active conformation resulting in a luminescence signal.
Of note, the SurA activity assay was performed similar at the ELF but with optimizations in regard of the higher throughput including the change of the plate format to 1536-wells. The SurA activity assay performed at the ELF contained the following steps (adapted from the QHL report provided by the ELF). First, SurA was thawed at RT and heat activated in a water bath. Next, the vial was taken out of the water bath and cooled down to RT for 30 min @ bench. […] Noteworthy, the SurA solution was kept on ice. 15 nL of 4 mM compound in DMSO were added to columns 9-48 with Echo acoustic nano-dispenser (ECHO). Additionally, 15 nL 100% DMSO were transferred to columns 1-8 with ECHO. […] The plate was spun for 60 seconds at 1000 rpm to ensure proper fluid localization at the bottom of the wells. […] Again, the plate was centrifuged for 60 seconds at 1000 rpm. […] To allow refolding of the luciferase, the plate was incubated 30 minutes at RT.

[5] = target: Luciferase (Photinus pyralis, UniProt P08659); assay: Primary assay buffer control without SurA: interference with Luciferase per se; assay type: biochemical, firefly; parameters: key: no influence on Luc activity = 0; enhances Luc activity = +; reduces Luc activity = -
Procedure: In short, the Luciferase based SurA activity assay was performed in SurA Activity Assay Buffer (40 mM HEPES pH 7.4, 20 mM MgSO4, 0.5 g/l BSA). SurA aliquots were thawn at RT, activated by mild heat treatment and cooled down to RT for 10 min. SurA concentration was adjusted to 1.6 µM in Activity Assay Buffer (protein solution). Solution A containing 10 mM ATP as well as 0.3 mM Luciferin (Promega Beetle Luciferin, Potassium Salt) in water was prepared. Luciferase working solution was prepared by diluting 1 ml Luciferase working stock (100 nM) with 9 ml assay buffer. 33 µl of the protein solution were added to every 2nd row of a well of a 384-well PS, white, flat bottom plate. […] Subsequently, 2 µl of compound in DMSO were added in quadruplicates (4 wells each of protein solution and buffer controls). These compound solutions could contain either various compounds or different dilutions of the same compound allowing screening inhibitor activity in a dose dependent manner. After compound addition, plates were incubated 15 min at RT. After this incubation, 5 µl of Luciferase working solution were added to each well. […] Subsequently, the assay plate was cooled for 5 min at 4°C followed by 10 min incubation at RT prior to luminescence measurement. Luminescence was measured in a TECAN infinite M200 pro plate reader for each well individually after injection of 10 µl Solution A. […]

[6] = system: E. coli ATCC 25922; assay: Minimal inhibitory concentration assay / Vancomycin sensitizer MIC assay; assay type: cell-based; conditions: Escherichia coli, ATCC25922
Description: The intended effect of a SurA inhibitor should be the induction of a disturbance of the outer membrane composition resulting in an increased susceptibility to antibiotic treatment. Of note, Vancomycin is typically not used to treat infections with Gram-negative bacteria, because it is excluded by the OM and not efficient at concentrations that could be achieved in patients. However, at appropriate dosing in vitro it can be used to detect outer membrane defects. For determining a potential sensitizing effect of Vancomycin treatment, the inventors first tested whether the compounds at hand were bactericidal per se. Therefore, the inventors performed a minimal inhibitory concentration (MIC) assay. To this end, 5 ml overnight cultures of E. coli BW25113 (Keio-Collection reference strain), E. coli JW2496-3 (Keio-Collection single gene knockout for bamB, which suffers from decreased outer membrane integrity) and E. coli ATCC 25922 (a reference strain recommended for antibiotic susceptibility testing) were grown in Mueller Hinton Broth, Cation adjusted (MHB-II). […] After o/n incubation, bacterial growth was quantified by measuring the optical density at 600 nm wavelength in a multiplate reader. […] Of note, the bactericidal effect of Vancomycin was assessed similarly for each test strain using Vancomycin concentrations ranging from 512 - 0.25 mg/ml. […]

[7] = target: T1, SurA; assay type: biochemical, E. coli; parameters: key to primary assay SurA: SurA inhibition = +; no SurA inhibiton = 0
Description: The biological function of SurA is to bind and to keep outer membrane proteins that have reached the periplasm in an unfolded but folding-competent state. The inventors' assay is based on this interaction and uses firefly Luciferase (fLuc) as a non-native substrate. […] This is exploited in the assay (Figure 3). The loss of tertiary structure of fLuc leads to the exposure of binding sites for SurA. It is known that SurA binds selectively to a special group of substrates. These substrates have in common the specific patterns of hydrophobic amino acids that are highly enriched in the beta strands of integral outer membrane proteins. These motifs are present in OMPs of all Gram-negative bacteria and in fLuc as well. Upon mild heat treatment of fLuc and its subsequent partial unfolding, fLuc is accepted as a substrate by SurA. Of note, these intermediates served as reporter substrates to determine the activity of a cytoplasmic folding chaperone. […] This interaction remains stable upon temperature reduction. Next, the temperature of the assay is reduced to room temperature and luciferase activity is subsequently measured by addition of Luciferin and ATP. In conditions without SurA, fLuc will refold into its active conformation resulting in a luminescence signal. […] In the case of presence of a SurA inhibitor (Figure 3 B), fLuc will adopt an active conformation resulting in an increased luminescence signal compared to conditions without SurA inhibition.
In short, the Luciferase based SurA activity assay was performed in SurA Activity Assay Buffer (40 mM HEPES pH 7.4, 20 mM MgSO4, 0.5 g/l BSA). SurA aliquots were thawn at RT, activated by mild heat treatment and cooled down to RT for 10 min. SurA concentration was adjusted to 1.6 µM in Activity Assay Buffer (protein solution). […] Subsequently, the assay plate was cooled for 5 min at 4°C followed by 10 min incubation at RT prior to luminescence measurement. Luminescence was measured in a TECAN infinite M200 pro plate reader for each well individually after injection of 10 µl Solution A.

[8] = target: T1, SurA; assay: biochemical; assay type: binding, E. coli
Procedure: His-tagged SurA was labeled with the Monolith His-Tag Labeling Kit RED-tris-NTA (Nanotemper) according to the manufacturer's instructions.
Microscale thermophoresis measurements were performed in 40 mM HEPES pH 7.4, 0.05 % Tween-20 at 25°C with a Monolith NT.115 (NanoTemper) in standard capillaries.

[9] = target: T1, SurA; assay type: binding, E. coli; parameters: key to nanoDSF pH 5 Ti#1 / nanoDSF pH 5 Ti#2 / nanoDSF pH 7.4 Ti#1 / nanoDSF pH 7.4 Ti#2: An increase of the inflection points in the nanoDSF experiments is indicated by (+); a decrease by (-); no changes with (none); ambiguity with a question mark (?)
Procedure: To this end, 5 µl of a 2 mM compound solution in DMSO were mixed with 95 µl of a 20 µM SurA solution. Technical triplicate measurements were performed on a Prometheus system (NanoTemper).

[10] = target: firefly Luciferase (Photinus pyralis, UniProt P08659); assay: Luciferase interference deselection assay (D1) at the ELF; assay type: biochemical
firefly Luciferase, sequence (P08659 whole entry): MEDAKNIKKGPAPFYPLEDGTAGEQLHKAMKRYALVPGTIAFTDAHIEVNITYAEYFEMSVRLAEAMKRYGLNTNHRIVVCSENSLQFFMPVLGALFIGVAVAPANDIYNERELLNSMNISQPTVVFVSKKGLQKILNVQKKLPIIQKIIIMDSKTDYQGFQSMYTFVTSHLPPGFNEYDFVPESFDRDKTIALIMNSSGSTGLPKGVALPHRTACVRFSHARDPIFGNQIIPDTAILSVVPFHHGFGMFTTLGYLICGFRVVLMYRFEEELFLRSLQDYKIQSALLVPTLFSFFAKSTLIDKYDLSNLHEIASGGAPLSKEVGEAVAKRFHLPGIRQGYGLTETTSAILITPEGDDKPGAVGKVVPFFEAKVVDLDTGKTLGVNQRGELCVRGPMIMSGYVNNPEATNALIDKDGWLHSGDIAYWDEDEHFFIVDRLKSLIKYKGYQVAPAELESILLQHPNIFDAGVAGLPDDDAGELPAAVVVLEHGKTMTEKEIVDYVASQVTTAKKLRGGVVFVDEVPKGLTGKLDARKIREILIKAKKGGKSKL
Procedure: The confirmed actives of ELF program ELFSC17_02 were tested as serial dilutions in the primary assay and deselection assay to generate dose response curves (DRCs). The serial dilutions consisted of 7 equidistant concentration steps (20 µM to 27.4 nM) and were tested in the primary and in the deselection assay in duplo (n=2) in 1536-well format. […] For the luciferase interference deselection assay in DRC-format, luciferase was left out in the Max effect wells, mimicking a 100% effect situation and resulting in a decreased signal. Compounds showing a signal decrease larger than 5 times the standard deviation (Z-score > 5) were identified as luciferase inducer. […] The ActivityBase application (IDBS) was used to analyze the data and to calculate quality parameters like Z-prime and Signal to Background ratio (S/B). For all compounds the % effect was calculated for all seven concentrations. ActivityBase was also used to calculate the pEC50 and Hill Slope. […] For compounds where no curve was fitted but reached >50% effect at 20 µM the Fit_Max was locked at 100% effect. For compounds where no curve was fitted but reached 100% effect at 20 µM and descended to <50% at 27 nM the Fit_Min was locked at 0%.

T1 sequence (P0ABZ6 21-428): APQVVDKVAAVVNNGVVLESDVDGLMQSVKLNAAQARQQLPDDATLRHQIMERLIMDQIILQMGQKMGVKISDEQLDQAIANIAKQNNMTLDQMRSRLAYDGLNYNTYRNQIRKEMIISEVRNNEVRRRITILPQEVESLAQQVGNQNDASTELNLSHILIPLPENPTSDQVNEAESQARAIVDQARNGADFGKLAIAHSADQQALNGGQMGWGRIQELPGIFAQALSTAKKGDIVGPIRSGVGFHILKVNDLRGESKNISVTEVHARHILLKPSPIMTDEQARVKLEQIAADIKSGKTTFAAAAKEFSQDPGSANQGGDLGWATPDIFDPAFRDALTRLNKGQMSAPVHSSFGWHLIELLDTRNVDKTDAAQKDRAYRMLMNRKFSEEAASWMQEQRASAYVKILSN
Luciferase, sequence (P08659 whole entry): as the sequence (P08659 whole entry) above

With CN(C)c1ccc(-c2nc3cc(NC(=O)Cn4cc5ccccc5n4)ccc3[nH]2)cc1 [QHL-24, N-(2-(4-(dimethylamino)phenyl)-1H-benzo[d]imidazol-5-yl)-2-(2H-indazol-2-yl)acetamide] the “Re-evaluation (Tuebingen) nanoDSF (Tycho) Ti#1” value [1] was “none”, the “Re-evaluation (Tuebingen) nanoDSF (Tycho) Ti#2” value [1] was “+” and the “CytoTox (observation in the well)” value [2] was “precipitate”. For the same compound, the CytoTox ([2]; LDH release, 1 h at 37°C) was 7.87%, the “solubility (in words)” value [3] was “poor solubility” and the IC50 [4] was 3.55 µM. For the same compound, the “Primary assay (P1) % Effect” value ([4]; ELF library screen, 1536-well) was 151%, the “Primary assay (P1) Z-score” value ([4]; ELF library screen, 1536-well) was 191.97 and the LipE ([4]; listed under calculated properties) was 1.39. The “primary assay Luciferase” value [5] was “-”, the MIC [6] was under 256 µg/mL and the “SurA inhibition in the Luciferase-based SurA activity assay (in words)” value [7] was “very high SurA inhibition”. The “Primary Assay ICmax” value ([7]; concentration of maximum SurA inhibition, dose response up to 250 µM, resynthesized/repurchased compounds) was 5 to 10 µM, the “primary assay SurA” value ([7]; influence on SurA) was “+” and the Kd [8] was 0.02 to 0.03 mM. For the same compound, the “Re-evaluation (Tuebingen) MST score” value ([8]; re-evaluation of QHL compound remainders) was “inconclusive”, the Kd ([8]; read-out: MST (Kd in mM)) was 0.02 to 0.03 mM and the “thermal stability of SurA as detected by nanoDSF (in words)” value [9] was “affected the thermal stability of SurA”. For the same compound, the “nanoDSF pH 7.4 Ti#1” value ([9]; 40 mM HEPES pH 7.4, 150 NaCl) was “none”, the “nanoDSF pH 7.4 Ti#2” value ([9]; 40 mM HEPES pH 7.4, 150 NaCl) was “-” and the “nanoDSF pH 5 Ti#1” value ([9]; 50 mM HAc pH 5) was “none”. For the same compound, the “nanoDSF pH 5 Ti#2” value ([9]; 50 mM HAc pH 5) was “+”, the IC50 [10] was 38 µM and the “Deselection (D1) plC50” value ([10]; Luciferase interference, 7 concentration steps 20 µM to 27.4 nM) was 4.42.
